Measurements from patent US11377444B2, “Pyridopyrimidine compounds acting as mTORC 1/2 dual inhibitors” (MEDSHINE DISCOVERY INC., priority 2017, dated 2022).

How the values were obtained:
HT-29 cell = experiment: Cell proliferation inhibitory activity (Cell-Titer-Glo), HT-29; format: cell-based; conditions: Homo sapiens, HT-29, 72 h, 3 days incubation
Source text: (§1) Experimental Embodiment 2: Evaluation of Cell Proliferation Inhibitory Activity
(§2) Experiment objective: To detect cell proliferation inhibitory activity of the tested compounds.
(§3) Experimental principle: The luciferase in the Cell-Titer-Glo reagent produces oxyluciferin using luciferin, oxygen and ATP as reaction substrates, and releases energy in the form of light. Since the reaction of luciferase requires ATP, the total amount of light generated by the reaction is proportional to the total amount of ATP that reflects cell viability.
(§4) Cell lines: MCF-7 cell line […], HT-29 cell line (ATCC-HTB-38), OE21 (ECACC-96062201), NCI-N87 cell line (ATCC-CRL-5822)
(§5) Cell culture medium: (RPMI 1640 culture medium (Invitrogen #1868546; 10% serum Invitrogen #1804958; L-glutamine 1×, Invitrogen #1830863; dual antibiotic Hyclone #J170012))
(§6) Cell Titer-Glo® Luminescent Cell Viability Assay Kit (Promega #G7573)
(§7) The cells were inoculated in a 384- or 96-well plate with a density of 1000 cells per well and 25 μL per well according to the instructions of the cell inoculating plate. The edge wells were not inoculated with cells, and was supplemented with […].
(§8) (i) The mother solution of the compound was 10 mM, and diluted with DMSO to an initial concentration of 4 mM. The compound was added to the compound mother solution, 9 μL per well.
(§9) (ii) The compound was diluted with ECHO liquid-handling workstation. Each well of the cell plate was added with 125 nL compound. Each well of the cell wells in 2nd column and 23rd column was added with 125 nL DMSO, and each of the PBS wells in 1st column and 24th column was added with 125 nL DMSO.
(§10) (iii) Each well of the cell plate was supplemented with 25 μL culture medium, the final volume in each well of the cell plate was 50 μL, […] 3 times dilution, 10 concentrations, each concentration was duplicated in left and right wells, the final DMSO concentration was 0.25%.
(§11) 2.3. After addition of the compound, centrifugation was performed at 1000 rpm for 1 min, and the cell plate was placed in a 37° C., 5% CO2 incubator for 3 days.
(§12) The cell plate was taken out from the incubator and equilibrated at room temperature for 30 minutes. 25 μL Cell-Titer-Glo reagent was added to each well, shaken for one minute to mix thoroughly, centrifuged at 1000 rpm for 1 minute. After 10 minutes, the plate was read on PerkinElmer Envision with a […] reading time was set at 0.2 second.

OE21 cell = experiment: Cell proliferation inhibitory activity (Cell-Titer-Glo), OE21; format: cell-based; conditions: OE21, 72 h; 3 days incubation
Source text: as §1, §2, §3, §4, §5, §6, §7, §8, §9, §10, §11, §12

[1] = target: T1, mTOR kinase (mTORC1 and mTORC2 kinase complex) (Homo sapiens, UniProt P42345); experiment: In vitro evaluation of mTOR kinase inhibitory activity (DiscoverX ligand-bead competition binding, qPCR readout)
T1 construct: purchased DiscoverX; host or cells: HEK-293
Method in brief: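 Tagged mTOR expressed in HEK-293 cells was combined with streptavidin beads carrying biotinylated ligand and DMSO-dissolved compound, shaken 1 h at room temperature. Beads were washed, then eluted 30 min with […] non-biotin affinity ligand. Kinase in eluate quantified by qPCR.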

IC50 (HT-29 cell) [nM] | Kd [1] [nM] | SMILES | IC50 (OE21 cell) [nM]
316 | – | CNC(=O)c1cccc(-c2ccc3c(N4CCOC[C@@H]4C)nc(N4CCOC[C@@H]4C)nc3n2)c1 [AZD2014, reference compound] | 148
607 | 0.38 | CNC(=O)c1cccc(-c2ccc3c(N4CCOC[C@@H]4C)nc(N4CCOC5(CCC5)C4)nc3n2)c1 [Embodiment 23] | 257
– | 0.3 | C[C@H]1COCCN1c1nc(N2CCOC3(CC3)C2)nc2nc(-c3cccc(C(N)=O)c3)ccc12 [Embodiment 51] | –
